The values below come from patent US7138421B2, “Anti-androgenic pyrrolidines with tumor-inhibiting action” (Schring Aktiengesellschaft, priority 2003, dated 2006).

One experiment has as its target T1, androgen receptor (Homo sapiens, UniProt P10275, T878A).
T1 construct: Destabilization of AR in LNCaP Cells by Test Substances; endogenous in cells; host or cells: LNCaP (human prostate cell line)
T1 sequence (P10275 1-920 T878A): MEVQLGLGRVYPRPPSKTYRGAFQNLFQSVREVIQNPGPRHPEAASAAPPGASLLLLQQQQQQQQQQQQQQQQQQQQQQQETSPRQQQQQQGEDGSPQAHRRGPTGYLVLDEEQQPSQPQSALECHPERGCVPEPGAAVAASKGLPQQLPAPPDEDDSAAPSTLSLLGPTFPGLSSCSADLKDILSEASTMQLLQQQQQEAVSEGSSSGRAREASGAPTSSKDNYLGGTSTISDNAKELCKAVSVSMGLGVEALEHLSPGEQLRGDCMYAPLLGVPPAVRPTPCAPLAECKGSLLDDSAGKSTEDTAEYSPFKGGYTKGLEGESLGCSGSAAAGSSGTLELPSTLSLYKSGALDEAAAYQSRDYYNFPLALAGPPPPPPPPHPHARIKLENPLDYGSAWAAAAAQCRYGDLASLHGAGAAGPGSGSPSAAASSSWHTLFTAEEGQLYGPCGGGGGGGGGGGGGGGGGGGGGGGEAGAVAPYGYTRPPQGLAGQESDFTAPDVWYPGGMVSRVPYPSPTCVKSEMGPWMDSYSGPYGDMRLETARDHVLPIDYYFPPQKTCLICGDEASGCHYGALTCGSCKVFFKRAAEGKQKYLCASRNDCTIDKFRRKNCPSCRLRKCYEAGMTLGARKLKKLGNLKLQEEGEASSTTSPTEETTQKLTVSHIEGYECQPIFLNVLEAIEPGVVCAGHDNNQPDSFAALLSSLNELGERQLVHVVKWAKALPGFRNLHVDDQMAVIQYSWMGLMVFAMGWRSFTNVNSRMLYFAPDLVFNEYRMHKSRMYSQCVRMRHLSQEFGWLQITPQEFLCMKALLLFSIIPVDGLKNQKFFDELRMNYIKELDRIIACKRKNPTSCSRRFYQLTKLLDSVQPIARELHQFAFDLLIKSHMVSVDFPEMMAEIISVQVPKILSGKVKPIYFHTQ
The class given is cell-based.

For another experiment, the system named is LNCaP cells. Nature of the experiment: Inhibition of the proliferation of LNCaP cells (crystal violet assay). The class given is cell-based, human. The following applies: for inhibition at 1 µM / IC50: Homo sapiens, LNCaP; for IC50: 7 to 8 days; for antiproliferative action (in words): LNCaP cells. The procedure:
For the proliferation assay, 6000 LNCaP cells/well (Horoszewicz et al. Cancer Res. 1983, 43, 1809–1817) in a microtiter plate (96-well) in 50 μl of RPMI1640 medium are grown with 5% CCS and cultivated as in Model 1. After 24 hours, the cells receive 50 μl of 2×-concentrated test substance, diluted in culture medium. The solvent concentration is 0.5% DMSO. After 4 days, the cells receive another 100 μl of 1×-concentrated test substance, diluted in culture medium. After 7 to 8 days, the proliferation rate of the cells is determined by means of crystal violet assay (Gillies et al. Anal. Biochem. 1986, 159, 109–113). To determine the antagonism, the substance treatment is performed in the presence of […] of R1881 (1:1000 dilution of ethanolic solution). Control cells receive only 0.5% DMSO. For the agonism, the cells are treated only with test substance (without R1881).

Where [1] appears, read: LNCaP cells, 48 h, 1 μM, % of DMSO control.
Where [2] appears, read: read-out: IC50 inhibition of the proliferation of LNCaP cells, in the presence of 0.1 nmol of R1881.
Where [3] appears, read: 1 μM test substance, compared to cell growth in the presence of 0.1 nmol of R1881, read-out: % Inhibition at 1 μM.
Where [4] appears, read: LNCaP cells, 48 h, 10 μM, % of DMSO control.
Where [5] appears, read: in the presence of 0.1 nmol of R1881, read-out: IC50 inhibition of the proliferation of LNCaP cells.

Read-outs that look alike come from different tables or passages of the source.

`CC1(C)C[C@@H](CN2CCCC2)N(CCCCCCCN2CCN(c3ccc(C#N)c(C(F)(F)F)c3)C2=S)C1=O` [Example 56, 4-[3-[7-[(2S)-4,4-Dimethyl-5-oxo-2-(pyrrolidin-1-ylmethyl)pyrrolidin-1-yl]heptyl]-2-thioxoimidazolidin-1-yl]-2-(trifluoromethyl)benzonitrile]: the “AR Content at 1 μM” value on androgen receptor (setting [1]) is 24%.
As for `CC1(C)C(=O)N(c2ccc(C#N)c(C(F)(F)F)c2)C(=S)N1CCCCO` [Example 77 USRe 35956, 4-[3-(4-Hydroxybutyl)-4,4-dimethyl-5-oxo-2-thioxoimidazolidin-1-yl]-2-(trifluoromethyl)benzonitrile, reference compound], the inhibition at 1 µM with LNCaP cells (read-out: % Inhibition at 1 μM, 1 μM test substance, compared to cell growth in the presence of 0.1 nmol of R1881) is 34%. Further, in the experiment on LNCaP cells (setting [2]), the IC50 was over 10000 nM. Also, the “antiproliferative action (in words)” value in the experiment on LNCaP cells is recorded as “little or no antiproliferative action”. For the same molecule, at androgen receptor, the “AR Content at 1 μM” value worked out at 230% and the “AR Content at 10 μM” value is listed as 180%.
As to `CC(C)(O)[C@@H]1CCCN1CCCCCCCCN1C(=S)N(c2ccc(C#N)c(C(F)(F)F)c2)C(=O)C1(C)C` [Example 40, 4-[3-[8-[(2S)-2-(1-Hydroxy-1-methylethyl)pyrrolidin-1-yl]octyl]-4,4-dimethyl-5-oxo-2-thioxoimidazolidin-1-yl]-2-(trifluoromethyl)benzonitrile], in the experiment with LNCaP cells (setting [2]), the IC50 is 11 nM. In addition, the inhibition at 1 µM in the experiment on LNCaP cells (setting [3]) amounted to 118%. For the same molecule, the “AR Content at 1 μM” value at androgen receptor (setting [1]) is 40%.
As to `C[C@]1(O)CC[C@H]2[C@@H]3CCC4=CC(=O)CCC4=C3C=C[C@@]21C` [Example R1881, 17β-hydroxy-17α-methylestra-4,9,11-trien-3-one, reference compound], the “influence on AR content (in words)” value on androgen receptor (LNCaP cells) was “stabilizes the AR protein”. For the same molecule, at androgen receptor (LNCaP cells, R1881 at 10 nM (printed in the 10 μM column), % of DMSO control), the “AR Content” value amounted to 250%.
Turning to `CC1(C)C(=O)N(c2ccc(C#N)c(C(F)(F)F)c2)C(=S)N1CCCCCCCN1CCC[C@H]1CO` [Example 9, 4-[3-[7-[(2S)-2-(Hydroxymethyl)pyrrolidin-1-yl]heptyl]-4,4-dimethyl-5-oxo-2-thioxoimidazolidin-1-yl]-2-(trifluoromethyl)benzonitrile], the IC50 in the experiment with LNCaP cells (setting [2]) worked out at 26 nM. In addition, in the experiment on LNCaP cells (setting [3]), the inhibition at 1 µM was 92%. Further, the “AR Content at 1 μM” value at androgen receptor (setting [1]) was determined as 63%.
In the case of `CC1(C)C(=O)N(c2ccc(C#N)c(C(F)(F)F)c2)C(=S)N1CCO` [Example 71 USRe 35956, 4-[3-(2-Hydroxyethyl)-4,4-dimethyl-5-oxo-2-thioxoimidazolidin-1-yl]-2-(trifluoromethyl)benzonitrile, reference compound], in the experiment on LNCaP cells (setting [2]), the IC50 is over 10000 nM. Further, in the experiment on LNCaP cells (setting [3]), the inhibition at 1 µM came to 9%. In addition, in the experiment on LNCaP cells, the “antiproliferative action (in words)” value is given as “little or no antiproliferative action”. The “AR Content at 1 μM” value at androgen receptor (setting [1]) was found to be 164%. Further, the “AR Content at 10 μM” value on androgen receptor (setting [4]) is 191%.
In the case of `C[C@@H]1CC[C@H](C)N1CCCCCCCCN1C(=S)N(c2ccc(C#N)c(C(F)(F)F)c2)C(=O)C1(C)C` [Example 37, 4-[3-[8-[(2R,5S)-rel-2,5-Dimethylpyrrolidin-1-yl]octyl]-4,4-dimethyl-5-oxo-2-thioxoimidazolidin-1-yl]-2-(trifluoromethyl)benzonitrile], the IC50 in the experiment on LNCaP cells (setting [2]) was determined as 11 nM. Besides, the inhibition at 1 µM in the experiment with LNCaP cells (setting [3]) was determined as 99%. Further, the “AR Content at 1 μM” value on androgen receptor (setting [1]) worked out at 57%.
`CC(C)(O)[C@H]1CCCN1CCCCCCCN1C(=S)N(c2ccc(C#N)c(C(F)(F)F)c2)C(=O)C1(C)C` [Example 43, 4-[3-[7-[(2R)-2-(1-Hydroxy-1-methylethyl)pyrrolidin-1-yl]heptyl]-4,4-dimethyl-5-oxo-2-thioxoimidazolidin-1-yl]-2-(trifluoromethyl)benzonitrile]: the inhibition at 1 µM in the experiment with LNCaP cells (setting [3]) was found to be 113%. The IC50 in the experiment on LNCaP cells (setting [5]) turned out to be 26 nM.
As to `CC1(C)C(=O)N(c2ccc(C#N)c(C(F)(F)F)c2)C(=S)N1CCCCCCCCN1C2CCC1CC(O)C2` (centres unmarked) [Example 24, 4-[3-[8-(3-Hydroxy-8-azabicyclo[3.2.1]oct-8-yl)octyl]-4,4-dimethyl-5-oxo-2-thioxoimidazolidin-1-yl]-2-(trifluoromethyl)benzonitrile], the inhibition at 1 µM in the experiment with LNCaP cells (setting [3]) was 102%. Besides, in the experiment with LNCaP cells (setting [5]), the IC50 was found to be 13 nM.
In the same order, the values of `CC1CCCN1CCCCCCCN1C(=S)N(c2ccc(C#N)c(C(F)(F)F)c2)C(=O)C1(C)C` (centres unmarked) [Example 35, 4-[4,4-Dimethyl-3-[7-(2-methylpyrrolidin-1-yl)heptyl]-5-oxo-2-thioxoimidazolidin-1-yl]-2-(trifluoromethyl)benzonitrile] are 92% and 30 nM.
In the same order, the values of `CC1(C)C(=O)N(c2ccc(C#N)c(C(F)(F)F)c2)C(=S)N1CCCCCCN1CCC[C@@H]1CO` [Example 6, 4-[3-[6-[(2R)-2-(Hydroxymethyl)pyrrolidin-1-yl]hexyl]-4,4-dimethyl-5-oxo-2-thioxoimidazolidin-1-yl]-2-(trifluoromethyl)benzonitrile] are 102% and 55 nM.
In the case of `CC1(C)C(=O)N(c2ccc(C#N)c(C(F)(F)F)c2)C(=S)N1CCCCCCN1CC[C@@H](C(N)=O)C1` [Example 52, (R)-1-[6-[3-[4-Cyano-3-(trifluoromethyl)phenyl]-5,5-dimethyl-4-oxo-2-thioxoimidazolidin-1-yl]hexyl]pyrrolidine-4-carboxamide], the IC50 in the experiment with LNCaP cells (setting [2]) was found to be 12 nM. In addition, the inhibition at 1 µM in the experiment on LNCaP cells (setting [3]) was 100%. In addition, at androgen receptor (setting [1]), the “AR Content at 1 μM” value was 74%. Further, the “AR Content at 10 μM” value at androgen receptor (setting [4]) is 36%.
As for `CC1(C)C(=O)N(c2ccc(C#N)c(C(F)(F)F)c2)C(=S)N1CCCCCCCN1CC[C@H](O)C1` [Example 31, 4-[3-[7-[(S)-3-Hydroxypyrrolidin-1-yl]heptyl]-4,4-dimethyl-5-oxo-2-thioxoimidazolidin-1-yl]-2-(trifluoromethyl)benzonitrile], the inhibition at 1 µM in the experiment with LNCaP cells (setting [3]) was 104%. In addition, the IC50 in the experiment on LNCaP cells (setting [5]) was 20 nM.
In the case of `CC1(C)C(=O)N(c2ccc(C#N)c(C(F)(F)F)c2)C(=S)N1CCCCCCCCCN1CCC[C@@H]1CO` [Example 12, 4-[3-[9-[(2R)-2-(Hydroxymethyl)pyrrolidin-1-yl]nonyl]-4,4-dimethyl-5-oxo-2-thioxoimidazolidin-1-yl]-2-(trifluoromethyl)benzonitrile], the inhibition at 1 µM in the experiment with LNCaP cells (setting [3]) is 93%. In the experiment with LNCaP cells (setting [5]), the IC50 came out at 24 nM.
`CC1(C)C(=O)N(c2ccc(C#N)c(C(F)(F)F)c2)C(=S)N1CCCCCCCCN1CC[C@H](O)C1` [Example 32, 4-[3-[8-[(S)-3-Hydroxypyrrolidin-1-yl]octyl]-4,4-dimethyl-5-oxo-2-thioxoimidazolidin-1-yl]-2-(trifluoromethyl)benzonitrile]: in the experiment with LNCaP cells (setting [3]), the inhibition at 1 µM came to 101%. In addition, the IC50 in the experiment on LNCaP cells (setting [5]) is 12 nM.
For `CC1(C)C(=O)N(c2ccc(C#N)c(C(F)(F)F)c2)C(=S)N1CCCCCCCCN1CC[C@H](C(N)=O)C1` [Example 51, (S)-1-[8-[3-[4-Cyano-3-(trifluoromethyl)phenyl]-5,5-dimethyl-4-oxo-2-thioxoimidazolidin-1-yl]octyl]pyrrolidine-4-carboxamide], the inhibition at 1 µM with LNCaP cells (setting [3]) amounted to 97%. Also, the IC50 in the experiment on LNCaP cells (setting [5]) turned out to be 20 nM.
In the same order, the values of `CC(C)(O)[C@@H]1CCCN1CCCCCCCCCN1C(=S)N(c2ccc(C#N)c(C(F)(F)F)c2)C(=O)C1(C)C` [Example 41, 4-[3-[9-[(2S)-2-(1-Hydroxy-1-methylethyl)pyrrolidin-1-yl]nonyl]-4,4-dimethyl-5-oxo-2-thioxoimidazolidin-1-yl]-2-(trifluoromethyl)benzonitrile] are 89% and 48 nM.
